Experimental data from article PMC6748986, “Potent modulation of the CepR quorum sensing receptor and virulence in a Burkholderia cepacia complex member using non-native lactone ligands” (Scientific Reports, 2019).
Positions count from the first letter of the chain named.

What was measured:
CepR [1] = system: CepR; parameters: method as in PMID 15978077; settings: at concentrations greater than 1 μM; cited from earlier work
CepR [2] = target: T1, CepR (Burkholderia cenocepacia, UniProt B4EMD0); assay: CepR agonism in E. coli β-galactosidase reporter (Ec-reporter) JLD271 [pJN105-cepR + pSC11-cepI]; assay type: cell-based, B. cenocepacia; settings: for Act%: Table S2, Ec-reporter, screening conc. 100 μM
T1 sequence (B4EMD0 1-239): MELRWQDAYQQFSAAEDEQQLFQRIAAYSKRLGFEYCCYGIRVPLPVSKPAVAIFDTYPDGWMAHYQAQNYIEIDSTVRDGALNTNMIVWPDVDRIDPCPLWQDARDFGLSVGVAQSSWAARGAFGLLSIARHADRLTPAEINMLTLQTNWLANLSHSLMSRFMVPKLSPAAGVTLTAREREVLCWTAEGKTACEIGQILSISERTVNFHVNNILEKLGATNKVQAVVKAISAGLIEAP
How it was run: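 E. coli JLD271 (ΔsdiA) carrying arabinose-inducible CepR (27 mM L-arabinose) and cepI-lacZ fusion, grown 4 h with compound; β-galactosidase measured by CPRG cleavage at 37 °C (~30 min), normalized to OD600. Agonism compared with C8-AHL at 100 μM; screen at 100 μM or solubility limit, then dose-response; ≥3 trials.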

CepR [3] = target: T1, CepR; assay: CepR antagonism in E. coli β-galactosidase reporter (Ec-reporter), competition against C8-AHL; assay type: cell-based, B. cenocepacia; settings: against 10 nM C8-AHL; for IC50 / Maximal Inhibition (%): Ec-reporter; for Inh% (100-Act%): Table S3, Ec-reporter, screening conc. 100 μM
How it was run: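 CepR antagonism was measured in E. coli JLD271 (∆sdiA) carrying pJN105-cepR, which expresses B. cenocepacia CepR from an arabinose-inducible pBAD promoter, and pSC11-cepI, which fuses lacZ to the cepI promoter. Induced cells were grown 4 h with compound and 10 nM C8-AHL. β-Galactosidase activity was then read by CPRG cleavage at 37 °C after Z Buffer permeabilization.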

CepR [4] = target: T2, CepR (Burkholderia multivorans, UniProt Q93PF7); assay: CepR antagonism in B. multivorans cepI::lacZ reporter (Bm-reporter), competition against C8-AHL; assay type: cell-based; settings: for Maximal Inhibition (%): Bm-reporter, against 5 nM C8-AHL; for Inh% (100-Act%): screening conc. 100 μM
T2 sequence (Q93PF7 1-239): T1 sequence (B4EMD0 1-239) with W5R, A51S, Q69H, N84S, R95Q, D97A
Excerpt: (§1) We next sought to assess if the CepR modulators identified in the Ec-reporter maintained their activities in a member of the Bcc. For these studies, we generated a B. multivorans cepI::lacZ reporter organism (Bm-reporter) using standard allelic exchange methods (see Methods). Along with B. cenocepacia, B. multivorans is one of the most commonly isolated Bcc members[6],[44]. We note that small molecules must contend with a different cellular environment in the native organism relative to E. coli[48]; however, as both CepR and the cepI promoter are highly conserved among Bcc species (Fig. S3), we reasoned that the majority of compounds identified in the Ec-reporter (containing B. cenocepacia versions of the cepI promoter and the cepR gene) would maintain their relative activity profiles in CepR in B. multivorans. […] Similar to the Ec-reporter, CepR binding to the cepI promoter then induces β-galactosidase production, allowing for the quantitation of CepR activity. Using the Bm-reporter organism, we observed robust activity for CepR in response to C8-AHL (EC50 = 0.7 nM, Table 3).
(§2) The B. multivorans cepI::lacZ strain was used to obtain dose-response data for CepR in response to synthetic AHLs. Overnight cultures of B. multivorans cepI::lacZ were grown in LB medium at 37 °C with shaking (225 rpm). Aliquots (200 μL) of a 1:10 dilution of this overnight culture were plated into 96-well plates containing varying concentrations of compound, and then grown for 4 h at 37 °C with shaking (225 rpm). β-galactosidase production was measured as described above for E. coli, with the following changes: permeabilized cells were incubated at 25 °C with substrate CPRG for ~10 min until positive control wells developed a deep red color. For agonism assays, synthetic compound was screened alongside and compared to the native ligand, C8-AHL (100 μM). For antagonism assays, the concentration of native ligand utilized was 5 nM (approximately equal to twice its EC50 value).

CepR [5] = target: T2, CepR; assay: CepR agonism in B. multivorans cepI::lacZ reporter (Bm-reporter); assay type: cell-based; settings: Table S4, Bm-reporter; screening conc. 100 μM
Excerpt: as §1, §2

Structure (SMILES)	Effect on CepR (CepR [1])	EC50 (CepR [2]; Ec-reporter, agonism dose-response) [µM]	Maximal Activation (%) (CepR [2]; Ec-reporter, activity for 100 μM C8-AHL set to 100%, error ±10%)	Act% (CepR [2]) [%]	IC50 (CepR [3]) [µM]	Maximal Inhibition (%) (CepR [3])	Maximal Inhibition (%) (CepR [4])	Act% (CepR [5]) [%]	Inh% (100-Act%) (CepR [3]) [%]	IC50 (CepR [4]; Table S5, Bm-reporter, read-out: IC50) [µM]	Inh% (100-Act%) (CepR [4]; Table S5, Bm-reporter) [%]
C#CCCCC(=O)NC1CCOC1=O (stereo not drawn) [5-hexynoyl-HL]	slight inhibitory effects	–	–	–	–	–	–	–	–	–	–
CCCCCC(=O)N[C@H]1CCOC1=O [Compound C6-AHL, hexanoyl L-homoserine lactone, reference compound]	slight inhibitory effects	≥ 20	87	87	7.5	83	20	–	–	–	–
O=C(Cc1cccc(I)c1)N[C@H]1CCOC1=O [Compound C11]	–	–	–	43	–	–	–	2.3	27	1.6	80
O=C(Cc1ccc(F)c(C(F)(F)F)c1)N[C@H]1CCOC1=O [Compound E10]	–	–	–	13	0.43	79	21	11	–	–	–
CCCCCCCCCC(=O)CC(=O)Nc1ccccc1O [Control 14, reference compound]	–	–	–	30	–	–	–	–	30	–	25
O=C(Nc1ccccc1NC(=O)c1cccc(Cl)c1)c1cccc(Cl)c1 [TP-5, reference compound]	–	–	–	0.4	–	–	–	–	24	–	15
